Results on 26 compounds are retold here after patent US12065443B2, “Compounds and pharmaceutical compositions thereof for the treatment of diseases” (priority 2017, dated 2024).

The term pIC50 denotes the negative decadic logarithm of the IC50, by convention in mol/L.

Holding throughout (experiment): biochemical
One test has as its target T1, SIK3 (Homo sapiens, UniProt Q9Y2K2).
T1 construct: purchased SignalChem S12-11G-100
How it is done:
(§1) The principle of the ^33P radioactive kinase assay consists in measuring the incorporated ^33P into the substrate AMARA peptide when phosphorylated by SIK1, SIK2 or SIK3 using [^33P]-g-ATP, which correlates with kinase activity.
(§2) 1% DMSO and 10 μM staurosporine final concentrations are used as negative and positive controls.
(§3) 11 μL of enzyme-substrate mixture is added on the assay plates. The reactions are started by adding 9 μL ATP mixture, consisting of non-labeled and ^33P-labeled ATP, on the assay plates.
(§4) The reactions are stopped by adding 25 μL phosphoric acid (150 mM) to the reactions.
(§5) After harvesting the kinase reactions, the filter plates are washed 6 times with phosphoric acid (75 mM). […] The top of the plates are sealed with TopSeal-A. Read-out is performed with a TopCount instrument (PerkinElmer Inc.).

In another test the target is T2, SIK2 (Homo sapiens, UniProt Q9H0K1).
T2 construct: purchased ThermoFisher Scientific PV4792
T2 sequence (Q9H0K1 whole entry): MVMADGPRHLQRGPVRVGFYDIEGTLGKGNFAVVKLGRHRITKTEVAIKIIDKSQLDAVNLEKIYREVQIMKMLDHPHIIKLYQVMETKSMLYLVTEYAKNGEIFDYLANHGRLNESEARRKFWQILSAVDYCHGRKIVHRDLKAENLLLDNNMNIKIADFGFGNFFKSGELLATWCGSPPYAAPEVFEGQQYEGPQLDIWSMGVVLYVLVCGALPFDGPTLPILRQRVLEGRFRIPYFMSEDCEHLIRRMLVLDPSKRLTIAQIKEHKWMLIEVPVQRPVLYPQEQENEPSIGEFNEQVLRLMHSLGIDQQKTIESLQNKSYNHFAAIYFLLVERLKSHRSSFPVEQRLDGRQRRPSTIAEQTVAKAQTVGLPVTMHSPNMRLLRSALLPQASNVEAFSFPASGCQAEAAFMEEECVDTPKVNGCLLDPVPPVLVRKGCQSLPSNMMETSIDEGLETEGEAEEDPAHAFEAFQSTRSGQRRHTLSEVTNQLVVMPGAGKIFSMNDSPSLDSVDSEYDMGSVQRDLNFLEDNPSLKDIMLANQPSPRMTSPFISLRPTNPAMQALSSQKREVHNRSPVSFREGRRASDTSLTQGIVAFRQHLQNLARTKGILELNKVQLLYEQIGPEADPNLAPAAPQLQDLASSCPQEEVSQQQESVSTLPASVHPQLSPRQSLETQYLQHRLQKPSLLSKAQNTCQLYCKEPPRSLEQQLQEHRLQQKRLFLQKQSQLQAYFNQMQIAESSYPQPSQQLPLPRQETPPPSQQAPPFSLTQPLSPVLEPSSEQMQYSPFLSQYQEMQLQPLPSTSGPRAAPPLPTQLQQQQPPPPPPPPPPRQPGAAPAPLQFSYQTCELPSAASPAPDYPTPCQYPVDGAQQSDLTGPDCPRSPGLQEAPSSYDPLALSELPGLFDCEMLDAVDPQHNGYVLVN
The note with it: 33P radioactive SIK kinase assay, AMARA peptide, 10 μM ATP. How it is done:
as §1, §2, §3, §4, §5

For a further test, the target named is T3, SIK1 (Homo sapiens, UniProt P57059).
T3 construct: purchased Carna Biosciences 02-131
T3 sequence (P57059 whole entry): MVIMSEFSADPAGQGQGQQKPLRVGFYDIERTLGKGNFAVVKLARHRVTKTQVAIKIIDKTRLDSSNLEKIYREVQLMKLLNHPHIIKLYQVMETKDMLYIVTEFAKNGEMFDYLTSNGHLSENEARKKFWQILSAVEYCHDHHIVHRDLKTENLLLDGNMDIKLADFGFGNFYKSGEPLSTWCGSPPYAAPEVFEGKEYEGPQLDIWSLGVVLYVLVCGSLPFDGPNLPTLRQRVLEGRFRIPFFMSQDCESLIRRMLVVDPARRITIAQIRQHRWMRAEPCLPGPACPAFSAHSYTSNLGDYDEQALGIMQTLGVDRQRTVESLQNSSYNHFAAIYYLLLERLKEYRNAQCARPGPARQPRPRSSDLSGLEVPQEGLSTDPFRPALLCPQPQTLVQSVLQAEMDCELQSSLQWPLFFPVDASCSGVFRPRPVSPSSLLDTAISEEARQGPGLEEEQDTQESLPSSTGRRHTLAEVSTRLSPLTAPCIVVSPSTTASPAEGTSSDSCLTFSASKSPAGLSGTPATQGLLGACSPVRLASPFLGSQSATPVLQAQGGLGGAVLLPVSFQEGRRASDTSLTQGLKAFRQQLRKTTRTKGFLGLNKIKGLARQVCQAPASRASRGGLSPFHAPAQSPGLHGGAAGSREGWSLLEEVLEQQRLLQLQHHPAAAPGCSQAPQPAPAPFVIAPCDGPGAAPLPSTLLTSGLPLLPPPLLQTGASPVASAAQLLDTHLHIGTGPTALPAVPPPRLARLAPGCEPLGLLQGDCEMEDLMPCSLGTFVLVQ
The note with it: 33P radioactive SIK kinase assay, AMARA peptide, 10 μM ATP; read-out: SIK1 IC50. How it is done:
as §1, §2, §3, §4, §5

pIC50: −log10 of the molar value.

T1 sequence (Q9Y2K2 whole entry): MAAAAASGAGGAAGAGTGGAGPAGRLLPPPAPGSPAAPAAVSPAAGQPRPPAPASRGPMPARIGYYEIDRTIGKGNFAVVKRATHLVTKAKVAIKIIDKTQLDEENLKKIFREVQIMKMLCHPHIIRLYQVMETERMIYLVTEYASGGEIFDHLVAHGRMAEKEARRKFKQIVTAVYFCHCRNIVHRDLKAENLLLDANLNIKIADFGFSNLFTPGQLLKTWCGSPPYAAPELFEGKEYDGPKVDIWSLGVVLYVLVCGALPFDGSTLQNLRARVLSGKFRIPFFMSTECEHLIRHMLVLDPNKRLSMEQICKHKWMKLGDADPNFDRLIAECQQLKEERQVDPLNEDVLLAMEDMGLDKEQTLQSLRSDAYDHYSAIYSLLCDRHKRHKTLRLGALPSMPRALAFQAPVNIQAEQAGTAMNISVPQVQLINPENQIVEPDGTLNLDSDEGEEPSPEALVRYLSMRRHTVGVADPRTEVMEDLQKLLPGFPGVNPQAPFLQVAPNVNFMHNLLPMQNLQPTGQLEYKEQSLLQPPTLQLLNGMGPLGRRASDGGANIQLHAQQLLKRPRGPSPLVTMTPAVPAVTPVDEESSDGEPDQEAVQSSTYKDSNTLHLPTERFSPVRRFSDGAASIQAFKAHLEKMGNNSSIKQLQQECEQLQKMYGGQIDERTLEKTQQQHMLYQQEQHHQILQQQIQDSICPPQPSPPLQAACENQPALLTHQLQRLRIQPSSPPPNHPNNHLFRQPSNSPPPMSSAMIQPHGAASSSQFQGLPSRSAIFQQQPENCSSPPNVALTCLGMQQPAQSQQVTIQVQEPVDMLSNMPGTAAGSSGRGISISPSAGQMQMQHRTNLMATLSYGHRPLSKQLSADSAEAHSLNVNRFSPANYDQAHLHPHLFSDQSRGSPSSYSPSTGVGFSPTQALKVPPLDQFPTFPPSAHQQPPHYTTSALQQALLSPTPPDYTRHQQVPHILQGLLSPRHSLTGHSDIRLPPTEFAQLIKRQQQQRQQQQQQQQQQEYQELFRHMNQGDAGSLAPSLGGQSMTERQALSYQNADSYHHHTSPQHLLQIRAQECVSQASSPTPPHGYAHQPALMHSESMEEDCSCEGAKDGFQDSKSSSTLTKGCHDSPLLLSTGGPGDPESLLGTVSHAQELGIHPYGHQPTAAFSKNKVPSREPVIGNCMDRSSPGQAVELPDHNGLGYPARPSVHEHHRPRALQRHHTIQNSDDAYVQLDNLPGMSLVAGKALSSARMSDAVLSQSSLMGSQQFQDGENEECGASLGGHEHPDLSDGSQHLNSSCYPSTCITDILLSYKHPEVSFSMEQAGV

In the case of `COc1cc(-c2ccc3c(c2)ncn3-c2cc(OC)c(C(=O)NCC(F)(F)F)c(OC)c2)ccn1` [compound 106, 2,6-dimethoxy-4-[5-(2-methoxy-4-pyridyl)benzimidazol-1-yl]-N-(2,2,2-trifluoroethyl)benzamide], the negative logarithm of the IC50 (pIC50) was 7.00 to 8.00 on SIK3, 7.00 to 8.00 on SIK2 and 6.30 to 7.00 on SIK1.

`COc1cc(-n2cnc3cc(-c4conc4C)ccc32)cc(OC)c1C(=O)NCC(F)(F)F` [compound 108, 2,6-dimethoxy-4-[5-(3-methylisoxazol-4-yl)benzimidazol-1-yl]-N-(2,2,2-trifluoroethyl)benzamide]: the pIC50 on SIK3, on SIK2 and at SIK1 was 6.30 to 7.00 throughout.

For the compound `COc1cc(-n2cnc3cc(-c4cnn(CC5CCCO5)c4)ccc32)cc(OC)c1C(=O)NCC(F)(F)F` (stereo not drawn) [compound 111, 2,6-dimethoxy-4-[5-[1-(tetrahydrofuran-2-ylmethyl)pyrazol-4-yl]benzimidazol-1-yl]-N-(2,2,2-trifluoroethyl)benzamide], the pIC50 on SIK3, on SIK2 and on SIK1 was 8.00 to 11.00 in each case.

Take `COc1cc(-n2cnc3cc(-c4cnn(C)c4)ccc32)cc(OC)c1C(=O)NCC(C)C` [compound 113, N-isobutyl-2,6-dimethoxy-4-[5-(1-methylpyrazol-4-yl)benzimidazol-1-yl]benzamide]: the pIC50 at SIK3, at SIK2 and at SIK1 was 7.00 to 8.00 in each case.

As to `CCC(C)NC(=O)c1c(OC)cc(-n2cnc3cc(-c4cnn(C)c4)ccc32)cc1OC` (stereo not drawn) [compound 114, 2,6-dimethoxy-4-[5-(1-methylpyrazol-4-yl)benzimidazol-1-yl]-N-sec-butyl-benzamide], the negative-log IC50 (pIC50) against SIK3, at SIK2 and at SIK1 was 6.30 to 7.00 each time.

For the compound `COc1cc(-n2cnc3cc(-c4cnn(C)c4)ccc32)cc(OC)c1C(=O)NC(C)C` [compound 115, N-isopropyl-2,6-dimethoxy-4-[5-(1-methylpyrazol-4-yl)benzimidazol-1-yl]benzamide], the pIC50 on SIK3, at SIK2 and on SIK1 was 7.00 to 8.00 each time.

With `COc1cc(-n2cnc3cc(-c4cnnc(C)c4)ccc32)cc(OC)c1C(=O)NCC(F)(F)F` [compound 121, 2,6-dimethoxy-4-[5-(6-methylpyridazin-4-yl)benzimidazol-1-yl]-N-(2,2,2-trifluoroethyl)benzamide], the pIC50 against SIK3 is 7.00 to 8.00; at SIK2 it was 6.30 to 7.00; at SIK1, < 6.30.

As for `COc1cc(-n2cnc3cc(-c4cnccn4)ccc32)cc(OC)c1C(=O)NCC(F)(F)F` [compound 128, 2,6-dimethoxy-4-(5-pyrazin-2-ylbenzimidazol-1-yl)-N-(2,2,2-trifluoroethyl)benzamide], the figures for the pIC50 at SIK3, at SIK2 and at SIK1 were 6.30 to 7.00, < 6.30 and < 6.30, respectively.

As to `COc1cc(-c2cnc3cc(-c4cnn(C)c4)ccn23)cc(OC)c1C(=O)NC1CS(=O)(=O)C1` [compound 130, N-(1,1-dioxothietan-3-yl)-2.6-dimethoxy-4-[7-(l-methylpyrazol-4-yl)imidazo[1,2-a]pyridin-3-yl]benzamide], the pIC50 against SIK3 is 7.00 to 8.00; at SIK2 it was 8.00 to 11.00; at SIK1, 7.00 to 8.00.

In the case of `COCCN(C)C(=O)c1c(OC)cc(-c2cnc3cc(-c4cnn(C)c4)ccn23)cc1OC` [compound 131, 2,6-dimethoxy-N-(2-methoxyethyl)-N-methyl-4-[7-(1-methylpyrazol-4-yl)imidazo[1,2-a]pyridin-3-yl]benzamide], the pIC50 on SIK3 is 6.30 to 7.00; at SIK2, 6.30 to 7.00; at SIK1 it was < 6.30.

For the compound `COc1cc(-n2cnc3cc(-c4nccn4C)ccc32)cc(OC)c1C(=O)NCC(F)(F)F` [compound 134, 2,6-dimethoxy-4-[5-(1-methylimidazol-2-yl)benzimidazol-1-yl]-N-(2,2,2-trifluoroethyl)benzamide], the values for the pIC50 against SIK3, at SIK2 and at SIK1 were 6.30 to 7.00, 7.00 to 8.00 and < 6.30, respectively.

For `COc1cc(-n2cnc3cc(-c4cncn4C)ccc32)cc(OC)c1C(=O)NCC(F)(F)F` [compound 135, 2,6-dimethoxy-4-[5-(3-methylimidazol-4-yl)benzimidazol-1-yl]-N-(2,2,2-trifluoroethyl)benzamide], the pIC50 at SIK3 was 6.30 to 7.00; at SIK2, 6.30 to 7.00; on SIK1 it was < 6.30.

Take `CCNC(=O)c1c(OC)cc(-n2cnc3cc(-c4noc(C)n4)ccc32)cc1OC(F)F` [compound 136, 2-(difluoromethoxy)-N-ethyl-6-methoxy-4-[5-(5-methyl-l,2,4-oxadiazol-3-yl)benzimidazol-1-yl]benzamide]: the pIC50 on SIK3, on SIK2 and at SIK1 was < 6.30 each time.

Take `COc1cc(-n2cnc3cc(-c4cnc(C)n4C)ccc32)cc(OC)c1C(=O)NCC(F)(F)F` [compound 138, 4-[5-(2,3-dimethylimidazol-4-yl)benzimidazol-1-yl]-2,6-dimethoxy-N-(2,2,2-trifluoroethyl)benzamide]: the figures for the pIC50 on SIK3, at SIK2 and at SIK1 were 6.30 to 7.00, 6.30 to 7.00 and < 6.30, respectively.

On to `COc1cc(-n2cnc3cc(-c4cnn(C)c4)ccc32)cc(OC)c1C(=O)N[C@@H]1CCC[C@H]1O` [compound 143, N-[(1R,2R)-2-hydroxycyclopentyl]-2,6-dimethoxy-4-[5-(1-methylpyrazol-4-yl)benzimidazol-1-yl]benzamide], for which the pIC50 is 7.00 to 8.00 on SIK3, 7.00 to 8.00 on SIK2 and 6.30 to 7.00 at SIK1.

In the case of `CCNC(=O)c1c(OC)cc(-n2cnc3cc(-c4nnc(C)[nH]4)ccc32)cc1OC(F)F` [compound 150, 2-(difluoromethoxy)-N-ethyl-6-methoxy-4-[5-(5-methyl-4H-1,2,4-triazol-3-yl)benzimidazol-1-yl]benzamide], the pIC50 against SIK3, at SIK2 and on SIK1 was < 6.30 throughout.

With `COc1cc(-n2cnc3cc(-c4c[nH]cn4)ccc32)cc(OC)c1C(=O)NCC(F)(F)F` [compound 153, 4-[5-(1H-imidazol-4-yl)benzimidazol-1-yl]-2,6-dimethoxy-N-(2,2,2-trifluoroethyl)benzamide], the pIC50 at SIK3, at SIK2 and at SIK1 was 7.00 to 8.00 in each case.

Regarding `COc1cc(-n2cnc3cc(-c4cnn(C)c4)ccc32)cc(OC)c1C(=O)NC1CCCCC1OC` (stereo not drawn) [compound 161, 2,6-dimethoxy-N-(2-methoxycyclohexyl)-4-[5-(1-methylpyrazol-4-yl)benzimidazol-1-yl]benzamide], the pIC50 at SIK3, on SIK2 and at SIK1 was < 6.30 throughout.

As for `COc1cc(-n2cnc3cc(-c4cnn(C)c4)ccc32)cc(OC)c1C(=O)N1CCC1` [compound 162, azetidin-1-yl-[2,6-dimethoxy-4-[5-(1-methylpyrazol-4-yl)benzimidazol-1-yl]phenyl]methanone], the pIC50 at SIK3 is 7.00 to 8.00; at SIK2, 6.30 to 7.00; at SIK1, 6.30 to 7.00.

For the compound `COc1cc(-n2cnc3cc(-c4cnn(C)c4)ccc32)cc(OC)c1C(=O)N[C@H]1CCCC[C@@H]1O` [compound 164], the pIC50 against SIK3 is < 6.30; on SIK2, 6.30 to 7.00; on SIK1, 6.30 to 7.00.

Turning to `COc1cc(-c2cnc3cc(-c4cnn(C)c4)ccn23)cc(OC)c1C(=O)N[C@H]1CC[C@@H]1O` [compound 170], the pIC50 on SIK3 is 8.00 to 11.00; at SIK2 it was 8.00 to 11.00; at SIK1, 7.00 to 8.00.

Regarding `COc1cc(-n2cnc3cc(-c4cnn(C)c4)ccc32)cc(OC)c1C(=O)N1CC(c2ccccc2)C1` [compound 180, [2,6-dimethoxy-4-[5-(1-methylpyrazol-4-yl)benzimidazol-1-yl]phenyl]-(3-phenylazrtidin-1-yl)methanone], the values for the pIC50 against SIK3, on SIK2 and at SIK1 were 6.30 to 7.00, 6.30 to 7.00 and 7.00 to 8.00, respectively.

Consider `COc1cc(-n2cnc3cc(-c4cnn(C)c4)ccc32)cc(OC)c1C(=O)N1C(C)CC1C` (stereo not drawn) [compound 181, [2,6-dimethoxy-4-[5-(1-methylpyrazol-4-yl)benzimidazol-1-yl]phenyl]-(2,4-dimethylazetidin-1-yl)methanone], for which the pIC50 against SIK3, on SIK2 and at SIK1 was < 6.30 each time.

For `COc1cc(-n2cnc3cc(-c4cnn(C)c4)ccc32)cc(OC)c1C(=O)N1CCC1C` (stereo not drawn) [compound 182, [2,6-dimethoxy-4-[5-(1-methylpyrazol-4-yl)benzimidazol-1-yl]phenyl]-(2-methylazetidin-1-yl)methanone], the pIC50 against SIK3, on SIK2 and at SIK1 was < 6.30 in each case.

For `COc1cc(-n2cnc3cc(-c4cnn(C)c4)ccc32)cc(OC)c1C(=O)N1CC(CO)C1` [compound 183, [2,6-dimethoxy-4-[5-(1-methylpyrazol-4-yl)benzimidazol-1-yl]phenyl]-[3-(hydroxymethyl)azetidin-1-yl]methanone], the pIC50 at SIK3, on SIK2 and at SIK1 was 6.30 to 7.00 in each case.

For `COc1cc(-n2cnc3cc(-c4cnn(C)c4)ccc32)cc(OC)c1C(=O)N1CC(O)C1` [compound 184, [2,6-dimethoxy-4-[5-(1-methylpyrazol-4-yl)benzimidazol-1-yl]phenyl]-(3-hydroxyazetidin-1-yl)methanone], the pIC50 against SIK3, on SIK2 and on SIK1 was 6.30 to 7.00 in each case.
